Target: T1, RgpB (Porphyromonas gingivalis, UniProt P95493)
T1 construct: 0.02 nM RgpB, isolated from culture of Porphyromonas gingivalis; endogenous in cells
Assay: RgpB inhibition, fluorogenic assay
Type: biochemical
Conditions: Activity (RgpB IC50), 0.02 nM RgpB, 10 μM Boc-Phe-Ser-Arg-MCA, 90 minutes, 37° C., pH=7.5
Method: The capacities of compounds of the present invention to inhibit the activity of RgpB were measured in a fluorogenic assay similar to those described in Barret Biochemical Journal. 1980, 187(3), 909. The specific assay conditions were as follows. Buffer: pH=7.5, 100 mM Tris-HCl, 75 mM NaCl, 2.5 mM CaCl2, 10 mM cysteine, 1% DMSO after all additions. Protein: 0.02 nM RgpB, isolated from culture of Porphyromonas gingivalis, as described in Pike et al. J. Biol. Chem. 1994, 269(1), 406, and Potempa and Nguyen. Current Protocols in Protein Scienc. 2007, 21.20.1-21.20.27. Fluorogenic substrate: 10 μM Boc-Phe-Ser-Arg-MCA. Time=90 minutes. Temperature=37° C. Each compound: 10 concentrations, starting at either 100 μM or 100 nM, with lower concentrations generated by serial 3-fold dilutions. By testing a range of concentrations for each compound, the concentration required to inhibit the activity of RgpB by 50% (the “IC50”) was determined.

T1 sequence (P95493 230-664): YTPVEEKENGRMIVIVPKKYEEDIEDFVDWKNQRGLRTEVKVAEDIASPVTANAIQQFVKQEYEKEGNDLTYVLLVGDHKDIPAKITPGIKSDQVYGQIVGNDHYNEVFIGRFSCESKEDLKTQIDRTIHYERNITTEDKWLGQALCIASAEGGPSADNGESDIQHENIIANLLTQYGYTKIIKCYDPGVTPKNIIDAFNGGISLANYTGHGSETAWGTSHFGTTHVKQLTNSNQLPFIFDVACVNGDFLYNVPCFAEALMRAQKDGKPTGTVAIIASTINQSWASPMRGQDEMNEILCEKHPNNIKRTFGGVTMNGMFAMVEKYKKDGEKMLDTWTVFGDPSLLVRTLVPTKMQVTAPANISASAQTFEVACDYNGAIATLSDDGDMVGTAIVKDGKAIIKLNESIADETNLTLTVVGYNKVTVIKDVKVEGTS

Compound	IC50 [nM]
N#CN1CCC[C@H]1COc1cc(N)ncc1Cl [Compound 41, (S)-2-(((2-amino-5-chloropyridin-4-yl)oxy)methyl)pyrrolidine-1-carbonitrile]	10000 to 100000
N#CN1CCC[C@H]1c1ccc2c(N)nccc2c1 [Compound 44, (S)-2-(1-aminoisoquinolin-6-yl)pyrrolidine-1-carbonitrile]	100 to 1000
N#CN1CCC1COc1ccnc(N)c1 (stereo not shown) [Compound 11, 2-(((2-aminopyridin-4-yl)oxy)methyl)azetidine-1-carbonitrile]	> 100000
COC(C)(C)C(=O)NC(Cc1ccc(N)nc1)C(=O)COc1c(F)c(F)cc(F)c1F (stereo not shown) [Compound 60, N-(1-(6-aminopyridin-3-yl)-3-oxo-4-(2,3,5,6-tetrafluorophenoxy)butan-2-yl)-2-methoxy-2-methylpropanamide]	< 100
N#CN1CCCC1CCc1ccnc(N)c1 (stereo not shown) [Compound 21, 2-(2-(2-aminopyridin-4-yl)ethyl)pyrrolidine-1-carbonitrile]	100 to 1000
Nc1cc(CC(NC(=O)C2CCCC2)C(=O)COc2c(F)cccc2F)ccn1 (stereo not shown) [Compound 55, N-(1-(2-aminopyridin-4-yl)-4-(2,6-difluorophenoxy)-3-oxobutan-2-yl)cyclopentanecarboxamide]	< 100
Nc1ccc(CC(NC(=O)C2CCCC2)C(=O)COc2c(F)c(F)cc(F)c2F)cn1 (stereo not shown) [Compound 53, N-(1-(6-aminopyridin-3-yl)-3-oxo-4-(2,3,5,6-tetrafluorophenoxy)butan-2-yl)cyclopentanecarboxamide]	< 100
N#CN1CCCC(Oc2ccnc(N)c2)C1 (stereo not shown) [Compound 9, 3-((2-aminopyridin-4-yl)oxy)piperidine-1-carbonitrile]	100 to 1000
CN(C#N)Cc1cc2ccnc(N)c2o1 [Compound 48, N-((7-aminofuro[2,3-c]pyridin-2-yl)methyl)-N-methylcyanamide]	100 to 1000
N#CN1CCCC1CCCOc1ccnc(N)c1 (stereo not shown) [Compound 18, 2-(3-((2-aminopyridin-4-yl)oxy)propyl)pyrrolidine-1-carbonitrile]	10000 to 100000
CC(CN(C)C#N)Oc1ccnc(N)c1 (stereo not shown) [Compound 15, N-(2-((2-aminopyridin-4-yl)oxy)propyl)-N-methylcyanamide]	100 to 1000
CC(COc1ccnc(N)c1)N(C)C#N (stereo not shown) [Compound 14, N-(1-((2-aminopyridin-4-yl)oxy)propan-2-yl)-N-methylcyanamide]	100 to 1000
CN(C#N)c1ccccc1Oc1ccnc(N)c1 [Compound 27, N-(2-((2-aminopyridin-4-yl)oxy)phenyl)-N-methylcyanamide]	> 100000
N#CN1CCCC1c1ccc2c(N)nccc2c1 (stereo not shown) [Compound 45, 2-(1-aminoisoquinolin-6-yl)pyrrolidine-1-carbonitrile]	< 100
CN(C#N)Cc1ccc2c(N)nccc2c1 [Compound 26, N-((1-aminoisoquinolin-6-yl)methyl)-N-methylcyanamide]	100 to 1000
N#CN1C[C@@H](O)C[C@@H]1c1ccc2c(N)nccc2c1 [Compound 50b, (2R,4S)-2-(1-aminoisoquinolin-6-yl)-4-hydroxypyrrolidine-1-carbonitrile]	< 100
COC(C)(C)C(=O)NC(Cc1ccc(N)nc1)C(=O)COc1c(F)ccc(F)c1F (stereo not shown) [Compound 61, N-(1-(6-aminopyridin-3-yl)-3-oxo-4-(2,3,6-trifluorophenoxy)butan-2-yl)-2-methoxy-2-methylpropanamide]	< 100
N#CN1CCC[C@H]1COc1cc(N)ncc1Br [Compound 30, (S)-2-(((2-amino-5-bromopyridin-4-yl)oxy)methyl)pyrrolidine-1-carbonitrile]	10000 to 100000
COC(C)(C)C(=O)NC(Cc1ccc(N)nc1)C(=O)COc1c(F)cccc1F (stereo not shown) [Compound 58, N-(1-(6-aminopyridin-3-yl)-4-(2,6-difluorophenoxy)-3-oxobutan-2-yl)-2-methoxy-2-methylpropanamide]	100 to 1000
CN(C#N)Cc1cc2c(N)nccc2o1 [Compound 4, N-((4-aminofuro[3,2-c]pyridin-2-yl)methyl)-N-methylcyanamide]	10000 to 100000
N#CN1CCC[C@H]1COc1ccnc(N)c1Cl [Compound 42, (S)-2-(((2-amino-3-chloropyridin-4-yl)oxy)methyl)pyrrolidine-1-carbonitrile]	10000 to 100000
N#CN1c2ccccc2CC1COc1ccnc(N)c1 (stereo not shown) [Compound 24, 2-(((2-aminopyridin-4-yl)oxy)methyl)indoline-1-carbonitrile]	10000 to 100000
Nc1cc(CCC(NC(=O)C2CCCC2)C(=O)COc2ccon2)ccn1 (stereo not shown) [Compound 71, N-(5-(2-aminopyridin-4-yl)-1-(isoxazol-3-yloxy)-2-oxopentan-3-yl)cyclopentanecarboxamide]	100 to 1000

Compound	IC50 [nM]
Nc1ccc(C[C@H](NC(=O)C2CCCC2)C(=O)COc2c(F)c(F)cc(F)c2F)cn1 [Compound 56, (S)—N-(1-(6-aminopyridin-3-yl)-3-oxo-4-(2,3,5,6-tetrafluorophenoxy)butan-2-yl)cyclopentanecarboxamide]	< 100
CN(C#N)C(COc1ccnc(N)c1)c1ccccc1 (stereo not shown) [Compound 36, N-(2-((2-aminopyridin-4-yl)oxy)-1-phenylethyl)-N-methylcyanamide]	1000 to 10000
Cc1cnc(N)cc1OC[C@@H]1CCCN1C#N [Compound 29, (S)-2-(((2-amino-5-methylpyridin-4-yl)oxy)methyl)pyrrolidine-1-carbonitrile]	10000 to 100000
CNc1cc(OCC2CCCN2C#N)ccn1 (stereo not shown) [Compound 22, 2-(((2-(methylamino)pyridin-4-yl)oxy)methyl)pyrrolidine-1-carbonitrile]	100 to 1000
CN(C#N)CCOc1ccnc(N)c1 [Compound 13, N-(2-((2-aminopyridin-4-yl)oxy)ethyl)-N-methylcyanamide]	100 to 1000
N#CN1CCC[C@@H]1COc1ccnc(N)c1 [Compound 20, (R)-2-(((2-aminopyridin-4-yl)oxy)methyl)pyrrolidine-1-carbonitrile]	1000 to 10000
COC(C)(C)C(=O)NC(Cc1ccnc(N)c1)C(=O)COc1ccon1 (stereo not shown) [Compound 63, N-(1-(2-aminopyridin-4-yl)-4-(isoxazol-3-yloxy)-3-oxobutan-2-yl)-2-methoxy-2-methylpropanamide]	1000 to 10000
CN(C#N)c1ccc2ccnc(N)c2c1 [Compound 1, N-(1-aminoisoquinolin-7-yl)-N-methylcyanamide]	> 100000
N#CN1CCN(c2ccnc(N)c2)CC1 [Compound 33, 4-(2-aminopyridin-4-yl)piperazine-1-carbonitrile]	1000 to 10000
CC(C)N(C#N)CCc1ccnc(N)c1 [Compound 5, N-(2-(2-aminopyridin-4-yl)ethyl)-N-isopropylcyanamide]	10000 to 100000
N#CN1C[C@H](O)C[C@@H]1c1ccc2c(N)nccc2c1 [Compound 49, (2R,4R)-2-(1-aminoisoquinolin-6-yl)-4-hydroxypyrrolidine-1-carbonitrile]	< 100
N#CN1CCC(Oc2ccnc(N)c2)C1 (stereo not shown) [Compound 2, 3-((2-aminopyridin-4-yl)oxy)pyrrolidine-1-carbonitrile]	100 to 1000
N#CN1CCC[C@H]1CSc1ccnc(N)c1 [Compound 28, (S)-2-(((2-aminopyridin-4-yl)thio)methyl)pyrrolidine-1-carbonitrile]	1000 to 10000
COC(C)(C)C(=O)NC(Cc1ccc(N)nc1)C(=O)COc1c(F)ccc(F)c1F (stereo not shown) [Compound 62, N-(1-(6-aminopyridin-3-yl)-3-oxo-4-(2,3,6-trifluorophenoxy)butan-2-yl)-2-methoxy-2-methylpropanamide]	100 to 1000
N#CN1CCCCC1c1ccc2c(N)nccc2c1 (stereo not shown) [Compound 37, 2-(1-aminoisoquinolin-6-yl)piperidine-1-carbonitrile]	100 to 1000
CNc1nccc2cc([C@@H]3CCCN3C#N)ccc12 [Compound 51a, (S)-2-(1-(methylamino)isoquinolin-6-yl)pyrrolidine-1-carbonitrile]	10000 to 100000
Nc1ccc(CC(NC(=O)C2CCCC2)C(=O)COc2c(F)cccc2F)cn1 (stereo not shown) [Compound 67, N-(1-(6-aminopyridin-3-yl)-4-(2,6-difluorophenoxy)-3-oxobutan-2-yl)cyclopentanecarboxamide]	< 100
CC(c1ccc2c(N)nccc2c1)N(C)C#N (stereo not shown) [Compound 46, N-(1-(1-aminoisoquinolin-6-yl)ethyl)-N-methylcyanamide]	1000 to 10000
Nc1ccc(C[C@@H](NC(=O)C2CCCC2)C(=O)COc2c(F)c(F)cc(F)c2F)cn1 [Compound 57, (R)—N-(1-(6-aminopyridin-3-yl)-3-oxo-4-(2,3,5,6-tetrafluorophenoxy)butan-2-yl)cyclopentanecarboxamide]	< 100
N#CN1C[C@@H](O)C[C@H]1c1ccc2c(N)nccc2c1 [Compound 50a, (2S,4S)-2-(1-aminoisoquinolin-6-yl)-4-hydroxypyrrolidine-1-carbonitrile]	< 100
N#CN1CCCCC1COc1ccnc(N)c1 (stereo not shown) [Compound 12, 2-(((2-aminopyridin-4-yl)oxy)methyl)piperidine-1-carbonitrile]	100 to 1000
N#CN1CC(COc2ccnc(N)c2)C1 [Compound 10, 3-(((2-aminopyridin-4-yl)oxy)methyl)azetidine-1-carbonitrile]	> 100000
CNc1nccc2cc([C@H]3CCCN3C#N)ccc12 [Compound 51b, (R)-2-(1-(methylamino)isoquinolin-6-yl)pyrrolidine-1-carbonitrile]	10000 to 100000
